Test results reported in article PMC2865582 (Journal of medicinal chemistry, 2010).

Assays:
[1] = system: experimental autoimmune encephalomyelitis; conditions: animal model of multiple sclerosis; cited from earlier work
[2] = biological target: T1, human GVIA iPLA2 (Homo sapiens, UniProt O60733); conditions: previous mixed micelle assay with DPPC substrate; cited from earlier work
T1 sequence (O60733 1-806): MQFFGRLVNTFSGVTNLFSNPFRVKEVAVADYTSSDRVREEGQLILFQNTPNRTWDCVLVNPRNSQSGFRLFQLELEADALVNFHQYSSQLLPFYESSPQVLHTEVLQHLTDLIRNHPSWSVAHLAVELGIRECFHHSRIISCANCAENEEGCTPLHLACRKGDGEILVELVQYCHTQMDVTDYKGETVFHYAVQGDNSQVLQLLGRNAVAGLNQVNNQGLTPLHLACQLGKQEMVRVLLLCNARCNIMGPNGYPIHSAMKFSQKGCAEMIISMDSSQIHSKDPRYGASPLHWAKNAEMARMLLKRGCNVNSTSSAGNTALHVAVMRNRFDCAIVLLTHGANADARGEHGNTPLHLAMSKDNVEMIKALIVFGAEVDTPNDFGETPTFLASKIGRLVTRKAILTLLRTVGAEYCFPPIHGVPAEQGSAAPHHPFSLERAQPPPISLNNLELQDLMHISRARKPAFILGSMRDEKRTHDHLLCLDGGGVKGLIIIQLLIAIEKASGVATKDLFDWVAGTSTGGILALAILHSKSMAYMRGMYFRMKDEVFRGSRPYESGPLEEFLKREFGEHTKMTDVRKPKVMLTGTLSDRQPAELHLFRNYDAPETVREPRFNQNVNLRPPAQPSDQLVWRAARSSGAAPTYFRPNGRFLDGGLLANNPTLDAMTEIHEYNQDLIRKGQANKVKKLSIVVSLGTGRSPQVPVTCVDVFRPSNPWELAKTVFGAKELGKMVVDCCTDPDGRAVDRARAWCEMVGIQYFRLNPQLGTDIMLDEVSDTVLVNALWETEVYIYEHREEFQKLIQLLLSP

[3] = biological target: T2, GIVA cPLA2 (Homo sapiens, UniProt P47712); experiment: Mixed micelle-based; assay type: biochemical; conditions: for inhibition at 0.091 mole fraction: read-out: GIVA cPLA2 % Inhibition; for times more potent for GVIA iPLA2 than for GIVA cPLA2: ratio of XI(50) values
T2 sequence (P47712 1-749): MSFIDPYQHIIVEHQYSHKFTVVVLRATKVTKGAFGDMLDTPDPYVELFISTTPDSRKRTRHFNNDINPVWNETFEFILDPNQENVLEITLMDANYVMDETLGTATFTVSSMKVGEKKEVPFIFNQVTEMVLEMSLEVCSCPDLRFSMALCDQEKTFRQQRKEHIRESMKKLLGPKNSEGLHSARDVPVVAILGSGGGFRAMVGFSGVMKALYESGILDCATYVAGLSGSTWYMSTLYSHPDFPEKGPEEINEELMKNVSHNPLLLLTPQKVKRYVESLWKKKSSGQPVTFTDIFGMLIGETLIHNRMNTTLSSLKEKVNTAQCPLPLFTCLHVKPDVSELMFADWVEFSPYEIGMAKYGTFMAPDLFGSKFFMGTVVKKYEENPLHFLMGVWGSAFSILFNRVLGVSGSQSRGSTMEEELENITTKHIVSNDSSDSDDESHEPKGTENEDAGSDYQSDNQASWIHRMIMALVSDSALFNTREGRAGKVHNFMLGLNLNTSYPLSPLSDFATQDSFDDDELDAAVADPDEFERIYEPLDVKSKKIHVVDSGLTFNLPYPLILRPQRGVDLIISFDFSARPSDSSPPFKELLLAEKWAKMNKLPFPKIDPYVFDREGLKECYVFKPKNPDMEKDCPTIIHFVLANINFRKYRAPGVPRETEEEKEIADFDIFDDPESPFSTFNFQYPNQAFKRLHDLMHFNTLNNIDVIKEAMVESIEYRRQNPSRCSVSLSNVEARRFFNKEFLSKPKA

[4] = biological target: T3, GV sPLA2 (Homo sapiens, UniProt P39877); experiment: Mixed micelle-based; assay type: biochemical; conditions: lower bound from % inhibition at 0.091 mole fraction
T3 sequence (P39877 21-138): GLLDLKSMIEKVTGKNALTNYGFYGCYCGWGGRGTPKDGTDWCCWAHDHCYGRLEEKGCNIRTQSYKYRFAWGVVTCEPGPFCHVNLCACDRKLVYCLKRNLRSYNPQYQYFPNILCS

| Molecule | inhibition at 0.091 mole fraction [3] [%] | times more potent for GVIA iPLA2 than for GV sPLA2 [4] | times more potent for GVIA iPLA2 than for GIVA cPLA2 [3] | other results |
| --- | --- | --- | --- | --- |
| O=C(CCCCc1ccccc1)C(F)(F)C(F)(F)F [compound 2, 1,1,1,2,2-pentafluoro-7-phenylheptan-3-one] | < 25 |  |  | therapeutic effect in experimental autoimmune encephalomyelitis [1]: beneficial therapeutic effect; GVIA iPLA2 XI(50) determined previously [2]: 0.0073 mole fraction |
| 1,1,1,2,2,3,3,5-octafluoro-7-phenyloctan-4-one [compound 25] |  | > 180 times | 76 times |  |
| O=C(CCCCCc1ccccc1)C(F)(F)C(F)(F)C(F)(F)F [6b, 1,1,1,2,2,3,3-Heptafluoro-9-phenylnonan-4-one] | < 25 |  |  |  |
| O=C(CCCCc1ccc2ccccc2c1)C(F)(F)F [12g, 1,1,1-Trifluoro-6-(naphthalen-2-yl)hexan-2-one] |  | > 455 times |  | GIVA cPLA2 XI(50) ([3]; mole fraction of inhibitor in total substrate interface giving 50% inhibition): 0.039 ± 0.001 mole fraction |
| O=C(CCCCc1ccc2ccccc2c1)C(F)(F)C(F)(F)C(F)(F)F [12i, 1,1,1,2,2,3,3-Heptafluoro-8-(naphthalen-2-yl)octan-4-one] |  | at least 90 times | at least 90 times |  |
